Legend:
Type in all cases: cell-based
IL-6 [1] = test: LPS-induced IL-6 secretion in primary human monocyte-derived macrophages (ELISA); conditions: for IL-6 Measurements Mean: LPS 0.15 ng/mL, baseline subtracted; for LPS-induced IL-6 secretion: macrophages, 0.15 ng/mL LPS
Method: (§1) Unpurified buffy coats (Research Blood Components) were carefully poured into 50 mL centrifuge tubes and diluted with room temperature Dulbecco's Phosphate Buffered Saline (dPBS) with Calcium and Magnesium (Gibco). Diluted buffy coats were further divided into four total 50 mL centrifuge tubes at 20 mL per tube. Lymphocyte Separation Medium (Corning) was carefully pipetted to the bottom of each centrifuge tube. Mixtures were centrifuged at 850× g for 32 minutes at 20° C. with 0 deceleration and acceleration.
(§2) The PBMC layer was separated from other components after centrifugation and added to new 50 mL centrifuge tube containing 25 mL dPBS. Total volume was brought up to 50 mL with dPBS and centrifuged at 600×g for 10 minutes at 20° C. with acceleration of 9, deceleration of 5. Supernatant was carefully removed from cell pellets. The cell pellets were resuspended using 10 mL dPBS. Total volume was then brought up to 50 mL using dPBS and centrifuged at 450×g for 5 min at 20° C. with acceleration of 9, deceleration of 9. The supernatant removal and cell pellet resuspension was repeated again.
(§3) The supernatant was then carefully removed from cell pellets. Cell pellets were resuspended in 10 mL dPBS without calcium or magnesium and filtered through a 70 uM cell strainer. The total PBMC number was determined using a Cellometer K2 automated cell counter. A total of 5E6 cells were saved for flow cytometric analysis. Remaining cells were centrifuged at 490×g for 5 minutes at 20° C. with acceleration of 9, deceleration of 9.
(§4) CD14+ cells were selected using EasySep™ Human CD14 Positive Selection Kit II ([…] Technologies). Cells were resuspended in cold EasySep™ Buffer ([…] Technologies) at 1×10^8 cells/mL. A total of 100 uL/mL EasySep™ Human CD14 Positive Selection Cocktail II was added to the cell suspension, mixed, and incubated at room temperature for 10 minutes. A total of 100 uL/mL RapidSpheres were added to the mixture and incubated at room temperature for 3 minutes after mixing, then RoboSep buffer was added to bring up the total volume to 10 mL. The mixture in a 15 mL tube was placed in magnet and incubated at room temperature for 3 minutes. Supernatant was discarded and 10 mL fresh EasySep™ buffer was added to 15 mL tube. The addition of RoboSep buffer, mixing, and discarding of supernatant was repeated two more times.
(§5) Negative and positive fractions were centrifuged at 490×g for 5 minutes at 20° C. with acceleration of 9, deceleration of 9, and resuspended in DMEM (Gibco) and 10% Heat Inactivated Fetal Bovine Serum (Atlanta Bio) and Penicillin/Streptomycin. Cells were counted and centrifuged again at 490× g for 5 minutes at 20° C. with acceleration of 9, deceleration of 9. After centrifugation, cell were resuspended in DMEM (Gibco) and 10% Heat Inactivated Fetal Bovine Serum (Atlanta Bio) and Penicillin/Streptomycin containing 500 U/mL […] and plated at 1-2×10^6 cells/mL on 10 cm tissue culture plates. Cells were kept in 37° C., 5% CO2 in between feedings/harvest.
(§6) Cells were fed every 3-4 days by removing media and unattached cells, centrifuging at 490× g for 5 minutes at 20° C. with acceleration of 9, deceleration of 9, and resuspending in fresh DMEM (Gibco) and 10% Heat Inactivated Fetal Bovine Serum (Atlanta Bio) and Penicillin/Streptomycin containing GM-CSF. Resuspended cells were seeded back onto 10 cm tissue culture plates and incubated at 37° C., 5% CO2. Differentiated macrophages were used for subsequent experiments.
(§7) Primary human PMBC derived macrophages were seeded on day 0 at 3.0E4 cells per well in 96-well microplates (ThermoFisher) in Dulbecco's Modified Eagle Medium (DMEM) (Gibco) supplemented with penicillin-streptomycin (Hyclone) and 10% heat inactivated fetal bovine serum (HI-FBS) (Atlanta Bio) and incubated overnight at 37° C., 5% CO2. On day 1, cells were washed once with 150 uL per well DPBS (Gibco) and treated with 75 uL of: • a. […]

IL-6 [2] = test: IL-6 cytokine secretion by TNFα-stimulated primary human hepatic stellate cells (ELISA); conditions: for IL-6 cytokine secretion, per-cell normalized, fold change from plasma amino acid background: primary human hepatic stellate cells, two donors, TNFα 3 ng/mL, 12 hours
Method: Primary human hepatic stellate cells were obtained from Samsara Sciences and grown in Complete HSC Medium to […] confluence in T75 or T150 flasks below passage 10 were seeded into 96-well plates and incubated for 6 hours at 37° C., 5% CO2 in a humidified incubator. After 6 hours, plates were removed from the incubator washed with DPBS and pretreated (±single amino acid dropout, ±supplemental amino acid dose; see experiment for medium composition) overnight, ˜14-15 hours. After overnight pretreatment, the medium was removed from the cells, and the same pretreatment medium, now supplemented with 3 ng/mL TNFα was applied. Plates were incubated for 12 hours at 37° C., 5% CO2. After 12 hour stimulus with TNFα, supernatant was removed and frozen at −80° C. in two separate aliquots. Plates were washed and incubated with CCK-8 viability reagent (Dojindo) for 1 hour. Viability was measured on the Synergy plate reader. Immediately, the medium was removed and the plates were fixed for immunofluorescence staining.
Human CCL2/MCP1 and Human IL-6 were measured by ELISA (Human […] DuoSet ELISA, R&D Systems; Human IL-6 DuoSet ELISA, R&D Systems) at ⅕ and 1/20 dilution in 1× Reagent Diluent (Reagent Ancillary Kit 2, R&D Systems). Data were normalized to the specific per well cell density determined by Hoechst stained nuclei count.
Tables 39-42 show per-cell normalized IL-6 cytokine secretion in primary human hepatic stellate cells from two donors as a fold change from the plasma amino acid background. Statistical significance calculated by one-way ANOVA with Dunnett's multiple comparison test within each treatment group.

TNFα = test: LPS-induced TNFα secretion in primary human monocyte-derived macrophages (ELISA); parameters: TNFa Measurements Mean: unit not given here; conditions: for TNFa Measurements Mean: Donor 1, LPS 0.15 ng/mL; for TNFa Measurements Mean / Donor 2 TNFa Measurements Mean / Donor 3 TNFa Measurements Mean: baseline subtracted; for LPS-induced TNFα secretion: macrophages, 0.15 ng/mL LPS
Method: as §1, §2, §3, §4, §5, §6, §7

[3] = Donor 2, Conc. 109 μM (baseline)
[4] = Donor 3, Conc. 109 μM (baseline)
[5] = Donor 2, Conc. 749 μM (baseline)
[6] = Donor 3, Conc. 749 μM (baseline)

N=C(N)NCCC[C@H](N)C(=O)O [Arginine, L-Arginine]
IL-6 Measurements Mean (IL-6 [1]; Donor 1, Conc. 109 μM (baseline)): 0
IL-6 Measurements Mean (IL-6 [1]; Donor 1, Conc. 1088 μM): −181.36
IL-6 Measurements Mean (IL-6 [1]; Donor 1, Conc. 2720 μM): −186.57
IL-6 Measurements Mean (IL-6 [1]; Donor 1, Conc. 5440 μM): 357.4394
IL-6 Measurements Mean (IL-6 [1]; [3]): 2.37E−15
IL-6 Measurements Mean (IL-6 [1]; Donor 2, Conc. 1088 μM): −9.701
IL-6 Measurements Mean (IL-6 [1]; Donor 2, Conc. 2720 μM): −13.6102
IL-6 Measurements Mean (IL-6 [1]; Donor 2, Conc. 5440 μM): −12.4164
IL-6 Measurements Mean (IL-6 [1]; [4]): 0
IL-6 Measurements Mean (IL-6 [1]; Donor 3, Conc. 1088 μM): 31.5786
IL-6 Measurements Mean (IL-6 [1]; Donor 3, Conc. 2720 μM): −7.503
IL-6 Measurements Mean (IL-6 [1]; Donor 3, Conc. 5440 μM): −6.81
LPS-induced IL-6 secretion (IL-6 [1]; Donor 1): increased
Fold Change IL-6 Secretion Normalized Per Cell (IL-6 [2]; donor 1, Conc. 109 μM (plasma background, reference)): 1.0000
Fold Change IL-6 Secretion Normalized Per Cell (IL-6 [2]; donor 1, Conc. 1088 μM): 0.9828
Fold Change IL-6 Secretion Normalized Per Cell (IL-6 [2]; donor 1, Conc. 2720 μM): 1.0231
Fold Change IL-6 Secretion Normalized Per Cell (IL-6 [2]; donor 1, Conc. 5440 μM): 0.7776
Fold Change IL-6 Secretion Normalized Per Cell (IL-6 [2]; donor 2, Conc. 109 μM (plasma background, reference)): 1.0000
Fold Change IL-6 Secretion Normalized Per Cell (IL-6 [2]; donor 2, Conc. 1088 μM): 0.9924
Fold Change IL-6 Secretion Normalized Per Cell (IL-6 [2]; donor 2, Conc. 2720 μM): 0.9401
Fold Change IL-6 Secretion Normalized Per Cell (IL-6 [2]; donor 2, Conc. 5440 μM): 0.8895
IL-6 cytokine secretion, per-cell normalized, fold change from plasma amino acid background (IL-6 [2]): no significant effect
TNFa Measurements Mean (TNFα; Conc. 109 μM (baseline)): 0
TNFa Measurements Mean (TNFα; Conc. 1088 μM): −24.33
TNFa Measurements Mean (TNFα; Conc. 2720 μM): 5.12
TNFa Measurements Mean (TNFα; Conc. 5440 μM): 62.06
Donor 2 TNFa Measurements Mean (TNFα; [3]): 1.42E−14
Donor 2 TNFa Measurements Mean (TNFα; Donor 2, Conc. 1088 μM): −12.7222
Donor 2 TNFa Measurements Mean (TNFα; Donor 2, Conc. 2720 μM): −3.763
Donor 2 TNFa Measurements Mean (TNFα; Donor 2, Conc. 5440 μM): −0.5738
Donor 3 TNFa Measurements Mean (TNFα; [4]): 3.55E−15
Donor 3 TNFa Measurements Mean (TNFα; Donor 3, Conc. 1088 μM): 3.131
Donor 3 TNFa Measurements Mean (TNFα; Donor 3, Conc. 2720 μM): −0.9669
Donor 3 TNFa Measurements Mean (TNFα; Donor 3, Conc. 5440 μM): −1.767

NC(=O)CC[C@H](N)C(=O)O [Glutamine, L-Glutamine]
IL-6 Measurements Mean (IL-6 [1]; Donor 1, Conc. 749 μM (baseline)): 0
IL-6 Measurements Mean (IL-6 [1]; Donor 1, Conc. 3747 μM): 291.5443
IL-6 Measurements Mean (IL-6 [1]; Donor 1, Conc. 11242 μM): 397.1745
IL-6 Measurements Mean (IL-6 [1]; Donor 1, Conc. 22484 μM): 440.1437
IL-6 Measurements Mean (IL-6 [1]; [5]): 2.37E−15
IL-6 Measurements Mean (IL-6 [1]; Donor 2, Conc. 3747 μM): 22.52
IL-6 Measurements Mean (IL-6 [1]; Donor 2, Conc. 11242 μM): 63.31
IL-6 Measurements Mean (IL-6 [1]; Donor 2, Conc. 22484 μM): 34.39
IL-6 Measurements Mean (IL-6 [1]; [6]): 3.79E−14
IL-6 Measurements Mean (IL-6 [1]; Donor 3, Conc. 3747 μM): 25.35
IL-6 Measurements Mean (IL-6 [1]; Donor 3, Conc. 11242 μM): 98.4903
IL-6 Measurements Mean (IL-6 [1]; Donor 3, Conc. 22484 μM): 108.5158
LPS-induced IL-6 secretion (IL-6 [1]; Donor 1): increased
LPS-induced IL-6 secretion (IL-6 [1]; Donor 2): increased
LPS-induced IL-6 secretion (IL-6 [1]; Donor 3): significantly increased
Fold Change IL-6 Secretion Normalized Per Cell (IL-6 [2]; donor 1, Conc. 562 μM (plasma background, reference)): 1.0000
Fold Change IL-6 Secretion Normalized Per Cell (IL-6 [2]; donor 2, Conc. 562 μM (plasma background, reference)): 1.0000
Fold Change IL-6 Secretion Normalized Per Cell (IL-6 [2]; donor 2, Conc. 3747 μM): 0.7100
IL-6 cytokine secretion, per-cell normalized, fold change from plasma amino acid background (IL-6 [2]): significantly reduced
TNFa Measurements Mean (TNFα; Conc. 749 μM (baseline)): 0
TNFa Measurements Mean (TNFα; Conc. 3747 μM): −45.7
TNFa Measurements Mean (TNFα; Conc. 11242 μM): −65.24
TNFa Measurements Mean (TNFα; Conc. 22484 μM): −103.07
Donor 2 TNFa Measurements Mean (TNFα; [5]): −9.5E−15
Donor 2 TNFa Measurements Mean (TNFα; Donor 2, Conc. 3747 μM): 9.338
Donor 2 TNFa Measurements Mean (TNFα; Donor 2, Conc. 11242 μM): 20.04
Donor 2 TNFa Measurements Mean (TNFα; Donor 2, Conc. 22484 μM): 11.5
Donor 3 TNFa Measurements Mean (TNFα; [6]): 0
Donor 3 TNFa Measurements Mean (TNFα; Donor 3, Conc. 3747 μM): 1.936
Donor 3 TNFa Measurements Mean (TNFα; Donor 3, Conc. 11242 μM): 18
Donor 3 TNFa Measurements Mean (TNFα; Donor 3, Conc. 22484 μM): 29.14
LPS-induced TNFα secretion (TNFα; Donor 2): increased
LPS-induced TNFα secretion (TNFα; Donor 3): increased

— patent US20210260010A1, “COMPOSITIONS AND METHODS FOR THE REDUCTION OR TREATMENT OF INFLAMMATION” (AXCELLA HEALTH INC., priority 2018, published 2021)
